Test results from patent publication EP0554400B1, “RETROVIRAL PROTEASE INHIBITORS” (MONSANTO COMPANY, priority 1990, dated 1992).

Experiments:
[1] = molecular target: T1, HIV protease (Human immunodeficiency virus type 1 group M subtype B, UniProt P04585); assay: HIV protease enzyme assay (fluorogenic substrate 2-aminobenzoyl-Ile-Nle-Phe(p-NO2)-Gln-ArgNH2); format: biochemical
T1 construct: HIV protease is diluted in the assay buffer to a final enzyme concentration of 12.3 nanomolar, based on a molecular weight of 10,780
Description: The compounds of the present invention are effective HIV protease inhibitors. Utilizing an enzyme assay as described below, the compounds set forth in the examples herein disclosed inhibited the HIV enzyme. The preferred compounds of the present invention and their calculated IC50 (inhibiting concentration 50%, i.e., the concentration at which the inhibitor compound reduces enzyme activity by 50%) values are shown in Table 6. The enzyme method is described below. The substrate is 2-aminobenzoyl-Ile-Nle-Phe(p-NO2)-Gln-ArgNH2. The positive control is MVT-101 (Miller, M. et al, Science, 246, 1149 (1989)] The assay conditions are as follows: Assay buffer: • 20 mM sodium phosphate, pH 6.4 • 20% glycerol • 1 mM EDTA • 1 mM DTT • 0.1% CHAPS
The above described substrate is dissolved in DMSO, then diluted 10 fold in assay buffer. Final substrate concentration in the assay is 80 µM.
HIV protease is diluted in the assay buffer to a final enzyme concentration of 12.3 nanomolar, based on a molecular weight of 10,780.
The final concentration of DMSO is 14% and the final concentration of glycerol is 18%. The test compound is dissolved in DMSO and diluted in DMSO to 10x the test concentration; 10 µl of the enzyme preparation is added, the materials mixed and then the mixture is incubated at ambient temperature for 15 minutes. The enzyme reaction is initiated by the addition of 40µl of substrate. The increase in fluorescence is monitored at 4 time points (0, 8, 16 and 24 minutes) at ambient temperature. Each assay is carried out in duplicate wells.

[2] = test system: HIV-1; assay: HIV inhibition assay of acutely infected CEM cells (tetrazolium/MTT colorimetric); format: cell-based; details: Table 7, CEM cells acutely infected with HIV-1, 7 days, MTT
Experimental: The effectiveness of the compounds listed in Table 7 were determined in the above-described enzyme assay and in a CEM cell assay.
(§1) Methods 20, 309-321 (1988).

[3] = test system: CEM cells; assay: Intrinsic toxicity of test compound in uninfected CEM cells (MTT); format: cell-based; details: Table 7, CEM cells without virus, 7 days, read-out: TD50 (the source's name)
Description: as §1

[4] = Table 6, 80 µM substrate, 12.3 nanomolar enzyme, pH 6.4
[5] = Table 7, above-described enzyme assay

Compound | IC50 [1, 4] | EC50 ([2]; Human immunodeficiency virus 1, CCRF-CEM, 168 h) | IC50 [1, 5] | CC50 [3] | EC50 [2]
COc1ccc(COC(=O)N[C@@H](Cc2ccccc2)[C@H](O)CN(CCC(C)C)C(=O)NC(C)(C)C)cc1 (relative stereo) [Carbamic acid, [3-[[[(1,1-dimethylethyl)amino]carbonyl](3-methylbutyl)amino]-2-hydroxy-1-(phenylmethyl)propyl]-, (4-methoxyphenyl)methyl ester, [1S-[1R*,2S*]]] | 489 nM | 820 nM |  |  | 
CC(C)CCN(C[C@@H](O)[C@H](Cc1ccccc1)NC(=O)OCc1ccccc1)C(=O)NC(C)(C)C (relative stereo) [Carbamic acid, [3-[[[(1,1-dimethylethyl)amino]carbonyl](3-methylbutyl)amino]-2-hydroxy-1-(phenylmethyl)propyl]-, phenylmethyl ester, [1S-[1R*,2S*]]] | 112 nM |  |  |  | 
CC(C)C[C@H](NC(=O)[C@@H](N)Cc1ccccc1)C(=O)NC(=O)NC[C@H](O)[C@H](Cc1ccccc1)NC(=O)OC(C)(C)C [(2S,3S)-3-(N-1,1-dimethylethoxycarbonyl)amido-1-(L-phenylalanyl-L-leucylcarbamoyl)amino-4-phenyl butanol] | 5000 nM |  | 5000 nM | 54000 nM | 13000 nM
Phenylmethylamide, N-[3-[[[(1,1-dimethylethyl)amino]carbonyl](3-methylbutyl)amino]-2-hydroxy-1-(phenylmethyl)propyl]-3,3-dimethyl-, [1S-[1R*,2S*]] | 850 nM |  | 850 nM |  | 
